Read-outs that look alike come from different tables or passages of the source.
Columns and labels:
Type in all cases: biochemical
[1] = molecular target: T1, TYK2 (Homo sapiens, UniProt P29597); assay: TYK2 microfluidic kinase assay (Caliper EZ Reader II, FAM labeled peptide substrate); conditions: (2.5 nM), 1 mM ATP
T1 construct: purchased Carna Biosciences
Procedure: (§1) Compounds were tested against JAK1, JAK2, JAK2V617F and TYK2.
(§2) Assay Formats: JAK activity was determined in the reaction buffer 50 mM HEPES, 0.01% Brij35, 10 mMMgCl2, 2 mMDTT by a microfluidic assay. The phosphorylation of a FAM labeled peptide substrate was monitored in the Caliper EZ Reader II (Perkin Elmer). The assay condition for each batch of enzyme (Carna Biosciences) was optimized to obtain 10% conversion rate of peptide substrate.
(§3) The test compounds were dissolved in DMSO to a stock concentration of 10 mM. 3-fold serially diluted compounds with top concentration of 5 μM were pre-incubated with JAK1, JAK2, JAK2V617F or TYK2 for 10 min at ambient temperature. The final DMSO concentration of assay mixture was 1%. FAM labeled peptide substrate (final concentration […]) and ATP (1 mM concentration) were sequentially added to initiate the kinase reaction at 28° C. The reaction was stopped by adding 50 mMEDTA. The reaction time for JAK1, JAK2, JAK2V617F and TYK2 was 120 min, 20 min, 30 min and 10 min, respectively.
(§4) The well in the test plate without enzyme was defined as 100% inhibition. And the well without compound but with equivalent DMSO was defined as no inhibition. The percent inhibition was calculated by the following formula. % Inhibition=(Conversionmax−Conversionsample)/(Conversionmax−Conversionmin)*100Conversionmax means the conversion rate in the positive well without addition of compound Conversionmin means the conversion rate in the well without addition of enzyme Conversionsample means the conversion rate of test compounds
(§5) The dose-response (percent inhibition) curve was plotted and IC50 values were determined by GraphPad software.

[2] = molecular target: T2, JAK2 (Homo sapiens, UniProt O60674); assay: JAK2 microfluidic kinase assay (Caliper EZ Reader II, FAM labeled peptide substrate); conditions: (0.25 nM), 1 mM ATP
T2 construct: purchased Carna Biosciences
Procedure: as §1, §2, §3, §4, §5

[3] = molecular target: T3, JAK1 (Homo sapiens, UniProt P23458); assay: JAK1 microfluidic kinase assay (Caliper EZ Reader II, FAM labeled peptide substrate); conditions: (5 nM), 1 mM ATP
T3 construct: purchased Carna Biosciences
Procedure: as §1, §2, §3, §4, §5

[4] = molecular target: T4, JAK2V617F (Homo sapiens, UniProt O60674, V617F); assay: JAK2V617F microfluidic kinase assay (Caliper EZ Reader II, FAM labeled peptide substrate); conditions: (2.5 nM), 1 mM ATP
T4 construct: purchased Carna Biosciences
Procedure: as §1, §2, §3, §4, §5

[5] = Table 2, read-out: IC50 TYK2 (2.5 nM) (1 mM ATP)
[6] = Table 2, read-out: IC50 JAK2 (0.25 nM) (1 mM ATP)
[7] = Table 2, read-out: IC50 JAK1 (5 nM) (1 mM ATP)
[8] = Table 2, read-out: IC50 J2V617F (2.5 nM) (1 mM ATP)
[9] = Table 3B, literature compounds, read-out: J2V617F (2.5 nM) (1 mM ATP)
[10] = Table 3B, literature compounds, read-out: TYK2 (2.5 nM) (1 mM ATP)
[11] = Table 3B, literature compounds, read-out: JAK2 (0.25 nM) (1 mM ATP)
[12] = Table 3B, literature compounds, read-out: JAK1 (5 nM) (1 mM ATP)

T3 sequence (P23458 whole entry): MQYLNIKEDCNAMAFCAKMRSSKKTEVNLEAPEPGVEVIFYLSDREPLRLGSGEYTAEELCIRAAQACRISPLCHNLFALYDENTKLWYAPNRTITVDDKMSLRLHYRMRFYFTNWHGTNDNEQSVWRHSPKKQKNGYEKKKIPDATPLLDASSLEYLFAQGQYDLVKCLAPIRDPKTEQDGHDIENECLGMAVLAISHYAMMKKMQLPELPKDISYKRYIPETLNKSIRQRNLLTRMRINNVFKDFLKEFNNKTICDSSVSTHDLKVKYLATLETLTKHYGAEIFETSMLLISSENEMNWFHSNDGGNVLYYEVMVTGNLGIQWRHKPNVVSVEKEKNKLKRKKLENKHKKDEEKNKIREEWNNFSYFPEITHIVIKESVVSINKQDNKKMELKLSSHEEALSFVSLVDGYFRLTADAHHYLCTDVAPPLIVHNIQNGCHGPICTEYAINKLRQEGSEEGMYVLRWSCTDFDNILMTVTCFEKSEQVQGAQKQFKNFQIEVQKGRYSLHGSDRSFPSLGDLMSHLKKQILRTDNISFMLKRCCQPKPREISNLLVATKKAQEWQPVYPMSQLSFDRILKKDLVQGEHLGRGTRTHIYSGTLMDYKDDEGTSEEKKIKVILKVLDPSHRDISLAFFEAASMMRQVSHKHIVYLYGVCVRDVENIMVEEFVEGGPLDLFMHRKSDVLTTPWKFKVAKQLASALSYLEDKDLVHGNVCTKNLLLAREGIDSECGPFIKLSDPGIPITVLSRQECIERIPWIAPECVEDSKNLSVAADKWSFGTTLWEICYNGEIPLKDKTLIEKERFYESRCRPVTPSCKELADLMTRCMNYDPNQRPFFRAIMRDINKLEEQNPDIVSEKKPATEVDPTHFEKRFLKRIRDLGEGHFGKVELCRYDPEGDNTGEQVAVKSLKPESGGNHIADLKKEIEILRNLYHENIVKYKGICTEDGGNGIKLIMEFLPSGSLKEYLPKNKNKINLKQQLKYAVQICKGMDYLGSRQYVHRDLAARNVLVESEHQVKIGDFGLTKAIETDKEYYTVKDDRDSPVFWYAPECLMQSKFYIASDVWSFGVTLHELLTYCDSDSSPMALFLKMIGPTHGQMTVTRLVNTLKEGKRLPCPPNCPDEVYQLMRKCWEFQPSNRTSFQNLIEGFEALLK
T4 sequence (O60674 whole entry V617F): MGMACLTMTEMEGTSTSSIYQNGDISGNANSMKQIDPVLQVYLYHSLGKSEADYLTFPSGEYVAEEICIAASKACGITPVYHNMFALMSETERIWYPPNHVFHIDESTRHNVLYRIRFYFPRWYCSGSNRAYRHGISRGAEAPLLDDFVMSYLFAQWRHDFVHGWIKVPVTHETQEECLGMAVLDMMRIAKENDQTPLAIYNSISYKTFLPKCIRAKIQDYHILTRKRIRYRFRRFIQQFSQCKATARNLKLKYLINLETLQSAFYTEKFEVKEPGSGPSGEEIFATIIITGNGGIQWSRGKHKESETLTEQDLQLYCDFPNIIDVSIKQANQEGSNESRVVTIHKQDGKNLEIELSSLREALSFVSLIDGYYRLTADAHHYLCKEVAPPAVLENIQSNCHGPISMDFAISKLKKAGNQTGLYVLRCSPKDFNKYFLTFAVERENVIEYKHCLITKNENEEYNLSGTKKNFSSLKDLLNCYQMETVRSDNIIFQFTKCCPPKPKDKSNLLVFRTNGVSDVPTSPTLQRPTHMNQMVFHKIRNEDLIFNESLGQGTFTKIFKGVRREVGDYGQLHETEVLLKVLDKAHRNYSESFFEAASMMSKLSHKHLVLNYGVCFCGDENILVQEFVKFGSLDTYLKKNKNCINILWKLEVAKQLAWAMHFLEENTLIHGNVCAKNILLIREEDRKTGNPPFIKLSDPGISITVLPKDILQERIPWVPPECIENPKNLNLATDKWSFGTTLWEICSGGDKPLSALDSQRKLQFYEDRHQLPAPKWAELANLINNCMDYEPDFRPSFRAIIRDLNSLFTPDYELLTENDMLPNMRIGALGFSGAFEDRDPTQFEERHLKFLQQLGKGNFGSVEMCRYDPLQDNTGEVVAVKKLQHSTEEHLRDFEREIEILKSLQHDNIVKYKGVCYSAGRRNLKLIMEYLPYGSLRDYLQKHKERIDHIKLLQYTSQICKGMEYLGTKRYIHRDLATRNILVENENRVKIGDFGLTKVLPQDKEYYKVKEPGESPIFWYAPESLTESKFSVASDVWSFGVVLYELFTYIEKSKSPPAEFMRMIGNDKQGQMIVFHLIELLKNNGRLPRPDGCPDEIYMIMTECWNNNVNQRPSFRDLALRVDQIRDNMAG
T1 sequence (P29597 whole entry): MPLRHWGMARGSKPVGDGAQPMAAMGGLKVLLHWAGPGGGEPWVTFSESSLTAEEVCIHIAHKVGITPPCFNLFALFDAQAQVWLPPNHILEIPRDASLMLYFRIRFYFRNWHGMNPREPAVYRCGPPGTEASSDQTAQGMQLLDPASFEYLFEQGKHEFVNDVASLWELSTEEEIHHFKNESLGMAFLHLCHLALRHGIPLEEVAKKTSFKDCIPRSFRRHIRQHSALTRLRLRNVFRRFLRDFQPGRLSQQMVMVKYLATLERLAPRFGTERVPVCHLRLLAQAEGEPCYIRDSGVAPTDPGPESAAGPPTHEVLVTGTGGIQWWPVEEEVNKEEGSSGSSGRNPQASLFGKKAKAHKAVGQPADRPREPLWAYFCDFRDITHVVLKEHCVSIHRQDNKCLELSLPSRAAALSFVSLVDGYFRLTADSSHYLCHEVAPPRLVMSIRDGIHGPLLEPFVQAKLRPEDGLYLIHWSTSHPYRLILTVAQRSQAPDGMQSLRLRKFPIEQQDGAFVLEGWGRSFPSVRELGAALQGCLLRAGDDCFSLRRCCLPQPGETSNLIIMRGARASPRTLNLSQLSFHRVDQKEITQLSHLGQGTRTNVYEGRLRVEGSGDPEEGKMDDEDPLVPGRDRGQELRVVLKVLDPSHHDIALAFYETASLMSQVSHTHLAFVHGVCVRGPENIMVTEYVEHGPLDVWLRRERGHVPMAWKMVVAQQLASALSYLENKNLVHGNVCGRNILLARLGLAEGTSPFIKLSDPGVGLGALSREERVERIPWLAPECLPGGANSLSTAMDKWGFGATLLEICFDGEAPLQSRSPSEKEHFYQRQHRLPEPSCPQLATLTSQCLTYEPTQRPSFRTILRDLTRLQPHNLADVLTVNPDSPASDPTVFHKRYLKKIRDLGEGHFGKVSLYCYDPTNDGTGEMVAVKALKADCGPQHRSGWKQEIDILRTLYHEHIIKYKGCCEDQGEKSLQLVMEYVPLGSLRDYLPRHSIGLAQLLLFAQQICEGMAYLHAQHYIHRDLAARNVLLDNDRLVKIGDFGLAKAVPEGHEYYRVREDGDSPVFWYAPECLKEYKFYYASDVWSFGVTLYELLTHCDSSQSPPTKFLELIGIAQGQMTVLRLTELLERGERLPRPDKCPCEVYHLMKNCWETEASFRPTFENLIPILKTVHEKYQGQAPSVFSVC
T2 sequence (O60674 whole entry): as the sequence (O60674 whole entry V617F) above, with F617V counted along it

| IC50 [1, 5] | IC50 [2, 6] | IC50 [3, 7] | IC50 [4, 8] | IC50 [4, 9] | IC50 [1, 10] | IC50 [2, 11] | IC50 [3, 12] | Compound |
| --- | --- | --- | --- | --- | --- | --- | --- | --- |
| 64.7 nM | 32.3 nM | 19.6 nM | – | – | – | – | – | Cc1cnc(Nc2cnn(C)c2)nc1-c1ccc(OCCC#N)c(F)c1 [Example 12, 3-(2-fluoro-4-(5-methyl-2-((1-methyl-1H-pyrazol-4-yl)amino)pyrimidin-4-yl)phenoxy)propanenitrile] |
| 106 nM | 0.9 nM | 28.9 nM | – | – | – | – | – | CC(C)(C#N)COc1ccc(-c2nc(Nc3cnn(C4CC4)c3)ncc2Cl)cc1 [Example 32, 3-(4-(5-chloro-2-((1-cyclopropyl-1H-pyrazol-4-yl)amino)pyrimidin-4-yl)phenoxy)-2,2-dimethylpropanenitrile] |
| 30 nM | < 0.25 nM | 10.8 nM | 6.16 nM | – | – | – | – | Cc1cnc(Nc2cnn(C3CC3)c2)nc1-c1ccc(N(C)CC2(C#N)CC2)c(F)c1 [Example 33, 1-(((4-(2-((1-cyclopropyl-1H-pyrazol-4-yl)amino)-5-methylpyrimidin-4-yl)-2-fluorophenyl)(methyl)amino)methyl) cyclopropanecarbonitrile] |
| – | – | – | – | 86.3 nM | 74.9 nM | 60.6 nM | 40.6 nM | CCOc1ccc(-c2nc(Nc3cnn(C)c3)ncc2C)cc1F [Example 46, 4-(4-ethoxy-3-fluorophenyl)-5-methyl-N-(1-methyl-1H-pyrazol-4-yl)pyrimidin-2-amine, reference compound] |
| 173 nM | 1.46 nM | 35.3 nM | – | – | – | – | – | N#CC1(CNc2ccc(-c3nc(Nc4cnn(C5CCNCC5)c4)ncc3Cl)cc2)CC1 [Example 44, 1-(((4-(5-chloro-2-((1-(piperidin-4-yl)-1H-pyrazol-4-yl)amino)pyrimidin-4-yl)phenyl)amino)methyl)cyclopropane carbonitrile] |
| 2.62 nM | 1.09 nM | 7.49 nM | – | – | – | – | – | Cc1cnc(Nc2cnn(C)c2)nc1-c1ccc(OCC(C)(C)C#N)cc1 [Example 38, 2,2-dimethyl-3-(4-(5-methyl-2-((1-methyl-1H-pyrazol-4-yl)amino)pyrimidin-4-yl)phenoxy)propanenitrile] |
| < 1.25 nM | 0.251 nM | < 2.5 nM | – | – | – | – | – | Cc1cnc(Nc2cnn(C3CCN(C)CC3)c2)nc1-c1ccc(OCC2(C#N)CC2)c(F)c1 [Example 20, 1-((2-fluoro-4-(5-methyl-2-((1-(1-methylpiperidin-4-yl)-1H-pyrazol-4-yl)amino)pyrimidin-4-yl)phenoxy)methyl)cyclopropane-carbonitrile] |
| – | – | – | – | 103 nM | 41.3 nM | 80.7 nM | 52.6 nM | CCOc1ccc(-c2nc(Nc3cnn(C(C)C)c3)ncc2C)cc1F [Example 49, 4-(4-ethoxy-3-fluorophenyl)-N-(1-isopropyl-1H-pyrazol-4-yl)-5-methylpyrimidin-2-amine, reference compound] |
| < 1.25 nM | 0.377 nM | < 2.5 nM | – | – | – | – | – | Cc1cnc(Nc2cnn(C3CCNCC3)c2)nc1-c1ccc(OCC(C)(C)C#N)c(F)c1 [Example 39, 3-(2-fluoro-4-(5-methyl-2-((1-(piperidin-4-yl)-1H-pyrazol-4-yl)amino)pyrimidin-4-yl)phenoxy)-2,2-dimethylpropanenitrile] |
| < 1.25 nM | < 0.25 nM | < 2.5 nM | < 1.25 nM | – | – | – | – | COCCn1cc(Nc2ncc(C)c(-c3ccc(OCC(C)(C)C#N)c(F)c3)n2)cn1 [Example 19, 3-(2-fluoro-4-(2-((1-(2-methoxyethyl)-1H-pyrazol-4-yl)amino)-5-methylpyrimidin-4-yl)phenoxy)-2,2-dimethylpropanenitrile] |
| 64.7 nM | 32.3 nM | 19.6 nM | – | – | – | – | – | Cc1cnc(Nc2cnn(C)c2)nc1-c1ccc(OCCC#N)cc1 [Example 41, 3-(4-(5-methyl-2-((1-methyl-1H-pyrazol-4-yl)amino)pyrimidin-4-yl)phenoxy)propanenitrile] |
| 218 nM | – | 65.1 nM | 138 nM | – | – | – | – | Cc1cnc(Nc2cnn(C3CC3)c2)nc1-c1ccc(OCC2(C#N)CC2)nc1 [Example 11, 1-(((5-(2-((l-cyclopropyl-1H-pyrazol-4-yl)amino)-5-methylpyrimidin-4-yl)pyridin-2-yl)oxy)methyl)cyclopropanecarbonitrile] |
| < 1.25 nM | – | 7.42 nM | < 1.25 nM | – | – | – | – | Cc1cnc(Nc2cnn(C3CCOCC3)c2)nc1-c1ccc(OCC2(C#N)CC2)c(F)c1 [Example 6, 1-((2-fluoro-4-(5-methyl-2-((1-(tetrahydro-2H-pyran-4-yl)-1H-pyrazol-4-yl)amino)pyrimidin-4-yl)phenoxy)methyl)cyclopropane-carbonitrile] |
| < 1.25 nM | 0.741 nM | 14.5 nM | – | – | – | – | – | Cc1cnc(Nc2cnn(C3CC3)c2)nc1-c1ccc(NCC(C)(C)C#N)c(F)c1 [Example 37, 3-((4-(2-((1-cyclopropyl-1H-pyrazol-4-yl)amino)-5-methylpyrimidin-4-yl)-2-fluorophenyl)amino)-2,2-dimethylpropanenitrile] |
| 98.4 nM | 3.12 nM | 26.8 nM | – | – | – | – | – | Cc1cnc(Nc2cnn(C3CCN(C)CC3)c2)nc1-c1ccc(NCC2(C#N)CC2)cc1 [Example 43, 1-(((4-(5-methyl-2-((1-(1-methylpiperidin-4-yl)-1H-pyrazol-4-yl)amino)pyrimidin-4-yl)phenyl)amino)methyl)cyclopropane carbonitrile] |
| 1.78 nM | 0.654 nM | < 2.5 nM | – | – | – | – | – | Cc1cnc(Nc2cnn(C(C)C(F)(F)F)c2)nc1-c1ccc(OCC(C)(C)C#N)c(F)c1 (stereo not shown) [Example 40, 3-(2-fluoro-4-(5-methyl-2-((1-(1,1,1-trifluoropropan-2-yl)-1H-pyrazol-4-yl)amino)pyrimidin-4-yl)phenoxy)-2,2-dimethylpropanenitrile] |
| < 1.25 nM | – | < 2.5 nM | < 1.25 nM | – | – | – | – | Cc1cnc(Nc2cnn(C3CCOCC3)c2)nc1-c1ccc(OCC(C)(C)C#N)c(F)c1 [Example 7, 3-(2-fluoro-4-(5-methyl-2-((1-(tetrahydro-2H-pyran-4-yl)-1H-pyrazol-4-yl)amino)pyrimidin-4-yl)phenoxy)-2,2-dimethylpropanenitrile] |
| 21.9 nM | – | 8.86 nM | 28.1 nM | – | – | – | – | Cc1cnc(Nc2cnn(C3CC3)c2)nc1-c1ccc(OCC2(C#N)CCC2)cc1 [Example 3, 1-((4-(2-((1-cyclopropyl-1H-pyrazol-4-yl)amino)-5-methylpyrimidin-4-yl)phenoxy)methyl)cyclobutane-carbonitrile] |
| 102 nM | 27.4 nM | 19.2 nM | – | – | – | – | – | Cc1cnc(Nc2cnn(C3CC3)c2)nc1-c1ccc(NCC2(C#N)CC2)cc1 [Example 42, 1-(((4-(2-((1-cyclopropyl-1H-pyrazol-4-yl)amino)-5-methylpyrimidin-4-yl)phenyl)amino)methyl)cyclopropane carbonitrile] |
| < 1.25 nM | 0.427 nM | < 2.5 nM | – | – | – | – | – | Cc1cnc(Nc2cnn(C3CCN(C)CC3)c2)nc1-c1ccc(OCC(C)(C)C#N)c(F)c1 [Example 18, 3-(2-fluoro-4-(5-methyl-2-((1-(1-methylpiperidin-4-yl)-1H-pyrazol-4-yl)amino)pyrimidin-4-yl)phenoxy)-2,2-dimethylpropanenitrile] |
| 41.4 nM | 3.4 nM | 14.1 nM | – | – | – | – | – | Cn1cc(Nc2ncc(Cl)c(-c3ccc(OCC(C)(C)C#N)cc3)n2)cn1 [Example 29, 3-(4-(5-chloro-2-((1-methyl-1H-pyrazol-4-yl)amino)pyrimidin-4-yl)phenoxy)-2,2-dimethylpropanenitrile] |

— patent US12024503B2, “Benzethers and anilines of pyrazolyl-amino-pyrimidinyl derivatives, and compositions and methods thereof” (LYNK PHARMACEUTICALS CO. LTD., priority 2019, dated 2024)
